Data from patent publication US20070037783A1, “Migrastatin analogs and uses thereof” (priority 2003, published 2007).
Blank lines part the entries; values can stand above or below the molecule they belong to.

Columns and labels:
[1] = tested on: 4T1 tumors; test: Effect on 4T1 primary tumor growth in mice; assay type: in vivo, BALB/c mice; details: 10 mg/kg i.p. daily Day 7-25; tumors measured Day 28
Experimental: Female BALB/c mice (6-8 week old) were purchased from the Jackson Laboratory (Bar Harbor, Me.). All mice were housed at the Weill Medical College of Cornell University Animal Facilities in accordance with the Principles of Animal Care (NIH publication no. 85-23, revised 1985). 4T1 tumor cells (1×10^5) were injected subcutaneously into the abdominal mammary gland area of mice in 0.1 ml of a single-cell suspension in phosphate buffered saline (PBS) on Day 0. The dosage of tumor implantation was empirically determined to give rise to tumor of ˜10 mm in diameter in untreated wild type mice in 21-23 days. On Day 7, when the tumors averaged in size ˜4-5 mm in diameter, migrastatin analogs or control PBS saline were given every day by intraperitoneal injection at 10 mg/kg or 20 mg/kg per mouse until Day 25. On Day 28, the mice were sacrificed. […] Primary tumors were measured using electronic calipers on the day when the mice were sacrificed. […] Numbers of metastatic 4T1 cells in lung were determined by the clonogenic assay.^63 In brief, lungs were removed from each mouse on Day 28, finely minced and digested in 5 ml of enzyme cocktail containing 1× PBS and 1 mg/ml collagenase type IV for 2 hours at 37° C. on a platform rocker. […]
Effect of migrastatin analogs on 4T1 tumor cell growth (See, FIG. 5). […] On Day 28, primary tumors were measured using electronic calipers. […]

[2] = tested on: 4T1 tumor lung metastasis; test: 4T1 tumor lung metastasis in syngeneic mice (6-thioguanine clonogenic assay); assay type: in vivo, BALB/c mice; details: for lung metastasis colonies: lungs Day 28, mean and standard deviation
Description: Inhibition of metastasis of mouse breast tumors by migrastatin alogs in mice. 4T1 mouse breast tumor cell line was isolated from a single spontaneously arising mammary tumor from a BALB/BfC3H mouse (MMTV+).^62 The 4T1 tumor closely mimics human breast cancer in its anatomical site, immunogenecity, growth characteristics, and metastatic properties.^63 From the mammary gland, 4T1 tumor spontaneously metastasizes to a variety of target organs including the lung, bone, brain, and liver through primarily a hematogenous rout.^64
To assess the efficacy of therapeutic application of migrastatin analogs in the 4T1 murine mammary carcinoma models, we administered migrastatin analogs (macroketone and macrolactam) to BALB/c mice carrying the 4T1 tumors.
Female BALB/c mice (6-8 week old) were purchased from the Jackson Laboratory (Bar Harbor, Me.). All mice were housed at the Weill Medical College of Cornell University Animal Facilities in accordance with the Principles of Animal Care (NIH publication no. 85-23, revised 1985). 4T1 tumor cells (1×10^5) were injected subcutaneously into the abdominal mammary gland area of mice in 0.1 ml of a single-cell suspension in phosphate buffered saline (PBS) on Day 0. The dosage of tumor implantation was empirically determined to give rise to tumor of ˜10 mm in diameter in untreated wild type mice in 21-23 days. On Day 7, when the tumors averaged in size ˜4-5 mm in diameter, migrastatin analogs or control PBS saline were given every day by intraperitoneal injection at 10 mg/kg or 20 mg/kg per mouse until Day 25. On Day 28, the mice were sacrificed. This regiment of migrastatin analogs was well tolerated with no signs of overt toxicity. Every group included five mice. Primary tumors were measured using electronic calipers on the day when the mice were sacrificed. Tumor size was the square root of the product of two perpendicular diameters. Numbers of metastatic 4T1 cells in lung were determined by the clonogenic assay.^63 In brief, lungs were removed from each mouse on Day 28, finely minced and digested in 5 ml of enzyme cocktail containing 1× PBS and 1 mg/ml collagenase type IV for 2 hours at 37° C. on a platform rocker. After incubation, samples were filtered through 70 uM nylon cell strainers and washed twice with PBS. Resulting cells were suspended and plated serially diluted in 10 cm tissue culture dishes in medium RPMI1640 containing 60 uM thioguanine for clonogenic growth. 6-Thioguanine-resistant tumor cells formed foci after 14 days, at which time they were fixed with methanol and stained with 0.03% methylene blue for counting.
Treatment 4T1 tumor lung metaotmis in smgencie mice with Kigrastatin analogs (See, FIG. 4). 4T1 tumor cells (10^5) were injected s.c. in the abdominal mammary gland with 0.1 ml of a single-cell suspension. Macroketone or macrolactam at 10 mg/kg or 20 mg/kg was given i.p. on Day 7 when the tumor size was about 5 mm in diameter, and everyday until Day 25. On Day 28, the mice were sacrificed. Each group comprised five mice. Lung metastasis was measured by the 6-thiogunine clonogenic assay. The mean and standard deviation are presented. In the control group (daily PBS injection), there were 61300±18900 colonies.

[3] = tested on: 4T1 mouse breast tumor cells; test: Boyden chamber cell migration assay with 4T1 tumor cells; assay type: cell-based; details: chamber cell migration, 6-8 h; average of three experiments; read-out: IC50 (4T1 tumor cells)
Experimental: The biological evaluation of the compounds (in terms of their ability to inhibit cell migration) was accomplished in a Boyden chamber cell migration assay. In this assay, mouse breast tumor cells (4T1 cells) or endothelial cells (HUVECs) are seeded on the upper chamber of a transwell insert. Growth factor-containing serum is added to the lower chamber.
Chamber Cell Migration Assay (Tables 4 and 6): Cell migrations were assayed with Boyden chambers [8.0 μm pore size, polyethylene terephthalate membrane, FALCON cell culture insert (Becton-Dickinson)]. 4T1 mouse breast tumor cells or HUVECs were trypsinized and counted. 300 μl of 5-10×10^4 cells in serum-free medium was added to the upper chamber and 500 μl of medium with 10% fetal bovine serum (FBS) was added to the lower chamber. […] Cells on the inside of the transwell inserts were removed with a cotton swab, and cells on the underside of the insert were fixed and stained. Photographs of three random regions were taken and the number of cells was counted to calculate the average number of cells that have transmigrated.

[4] = tested on: HUVECs (human umbilical vein endothelial cells); test: Boyden chamber cell migration assay with HUVECs; assay type: cell-based; details: chamber cell migration; average of three experiments; read-out: IC50 (HUVEC)
Experimental: Chamber Cell Migration Assay (Tables 4 and 6): Cell migrations were assayed with Boyden chambers [8.0 μm pore size, polyethylene terephthalate membrane, FALCON cell culture insert (Becton-Dickinson)]. 4T1 mouse breast tumor cells or HUVECs were trypsinized and counted. 300 μl of 5-10×10^4 cells in serum-free medium was added to the upper chamber and 500 μl of medium with 10% fetal bovine serum (FBS) was added to the lower chamber. The transwells were incubated for 6-8 h at 37° C. with different concentrations of chemical compound in both upper and lower chamber. Cells on the inside of the transwell inserts were removed with a cotton swab, and cells on the underside of the insert were fixed and stained. Photographs of three random regions were taken and the number of cells was counted to calculate the average number of cells that have transmigrated.

[5] = tested on: 4T1 mouse breast tumor cells; test: Wound-healing assay with 4T1 cells (FIG. 6); assay type: cell-based; details: with serum; 200 μM; overnight
Description: In the wound healing assay, standard scratches (i.e., wounds) were made through a confluent 4T1 cell layer. In the absence of serum, cells would not migrate across the empty space created by application of the scratch. Upon addition of serum containing migration-enabling factors, migration of 4T1 cells across the scratch was induced. Exposure to these cells to inventive compounds allowed the evaluation of the cell migration inhibitory activity of these compounds.
Wound-Healing Assay (See FIG. 6). 4T1 mouse breast tumor cells in RPMI-1640 medium containing 10% fetal bovine serum (FBS) were seeded into wells of 24-multiwell plates (Becton-Dickinson). After cells grew to confluence, wounds were made with sterile pipette tips. Cells were washed with Phosphate Buffered Saline (PBS) and refreshed with growth medium containing different concentrations of chemical compounds. After overnight incubation at 37° C., cells were fixed and photographed.

[6] = Mouse plasma stability study (HPLC); assay type: in vitro ADME
Experimental: Mouse Plasma Stability Studies (Table 5): HPLC conditions: The sample is injected and separated using an Inertsil ODS3 6u 3×150 mm column with a mobile phase of MeCN and water (50% for migrastatin) at a flow of 0.4 mL/min, monitored at 220 nm at 0.02 AUFS (the retention time for migrastatin is ca. 4 min, the identity of this peak was confirmed by mass spectral analysis). Incubation and sample preparation conditions: A solution (ca. 30 mM) of chemical compound (Table 5) in DMSO is prepared. 2 μL of the solution is added to a mixture containing 200 μL of mouse plasma and 800 μL of PBS. The resulting solution is put into a water bath at 37° C., and 100 μL of sample is withdrawn at 10, 20, 30, 45, and 60 min. The precipitate is removed by centrifugation and 20 μL of the supernatant is injected onto the HPLC.

[7] = tested on: 4T1 tumor cells; test: Cell proliferation assay (MTT); details: MTT, 48 h; up to 20 μM
Experimental: Cell Proliferation Assay: 4×10^4 of 4T1 tumor cells in RPMI-1640 medium containing 10% FBS were seeded into wells of 96-multiwell plates (Becton-Dickinson) in the presence or absence of chemical compounds and then incubated at 37° C. for 48 h. An MTT kit (Cell Proliferation Kit I, Roche) (a colorimetric assay) was used to quantify cell proliferation and viability. The number of living cells, thus the total metabolic activity, directly correlates to the amount of purple formazan crystals formed (monitored by the absorbance).

IC50 [3]: 100 nM
Compound: COC1C=CCCCCC(=O)CCC(C)=CC(C)C1O (stereo not shown) [macroketone (60), Macroketone]
effect on growth of 4T1 primary tumors, in words [1]: minor effect on tumor growth
inhibition of lung metastasis ([2]; 10 mg/kg i.p. daily Day 7-25): ~94%
lung metastasis colonies ([2]; 10 mg/kg i.p. daily Day 7-25): 3875±2525 colonies
inhibition of lung metastasis ([2]; 20 mg/kg i.p. daily Day 7-25): ~99%
lung metastasis colonies ([2]; 20 mg/kg i.p. daily Day 7-25): 650±575 colonies
IC50 [4]: 12000 nM

Compound: COC1C=CCCCCC(=O)OCC(C)=CC(C)C1O (stereo not shown) [macrolactone (48), Macrolactone]
inhibition of 4T1 cell migration across the scratch, in words [5]: almost completely inhibited cell migration across the scratch
IC50 [3]: 24 nM
stability (t1/2, mouse plasma) ([6]; mouse plasma/PBS, 37° C., sampled up to 60 min): <5 min
stability (mouse plasma), in words ([6]; stable = intensity of HPLC signal unchanged over 60 min of incubation): hydrolyzed rapidly
cytotoxic or anti-proliferative effects on 4T1 cells, in words [7]: did not have any cytotoxic or anti-proliferative effects up to 20 μM
IC50 [4]: 125 nM
